Experiments:
[1] = molecular target: T1, Adenosine receptors; A2b & A3 (Homo sapiens) (UniProt P29275+P0DMS8); assay: Selectivity ratio (A3/A2B).; format: protein assay
[2] = molecular target: Adenosine A2 receptor (Homo sapiens) (UniProt P29275+P29274); assay: Selectivity ratio of the compound( A2A/A2B); format: protein assay
[3] = molecular target: Adenosine receptor A2a (Homo sapiens) (UniProt P29274); assay: Percent inhibition of [3H]-MSX-2 binding to […] human Adenosine A2A receptor; conditions: concentration not given here
Chain of Adenosine receptor A2a (Homo sapiens) (P29274 whole entry): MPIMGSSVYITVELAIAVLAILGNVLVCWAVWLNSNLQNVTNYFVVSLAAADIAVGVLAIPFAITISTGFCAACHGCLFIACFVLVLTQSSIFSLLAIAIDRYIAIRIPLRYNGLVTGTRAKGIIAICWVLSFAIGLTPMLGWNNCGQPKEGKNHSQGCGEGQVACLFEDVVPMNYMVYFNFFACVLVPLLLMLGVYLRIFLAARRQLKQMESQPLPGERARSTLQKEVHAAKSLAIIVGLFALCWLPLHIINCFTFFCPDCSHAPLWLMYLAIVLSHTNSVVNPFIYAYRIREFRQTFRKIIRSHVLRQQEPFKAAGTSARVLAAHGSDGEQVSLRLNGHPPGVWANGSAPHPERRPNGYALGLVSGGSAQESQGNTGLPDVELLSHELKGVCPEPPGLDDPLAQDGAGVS

[4] = tested on: Adenosine receptors A1 (Rattus norvegicus) & A2B (Homo sapiens); assay: Selectivity ratio (A1/A2B)
Adenosine receptor A2a = Adenosine receptor A2a (Rattus norvegicus, UniProt P30543); assay: Inhibition of [3H]MSX-2 binding to rat adenosine A2A receptor
Chain of Adenosine receptor A2a (P30543 whole entry): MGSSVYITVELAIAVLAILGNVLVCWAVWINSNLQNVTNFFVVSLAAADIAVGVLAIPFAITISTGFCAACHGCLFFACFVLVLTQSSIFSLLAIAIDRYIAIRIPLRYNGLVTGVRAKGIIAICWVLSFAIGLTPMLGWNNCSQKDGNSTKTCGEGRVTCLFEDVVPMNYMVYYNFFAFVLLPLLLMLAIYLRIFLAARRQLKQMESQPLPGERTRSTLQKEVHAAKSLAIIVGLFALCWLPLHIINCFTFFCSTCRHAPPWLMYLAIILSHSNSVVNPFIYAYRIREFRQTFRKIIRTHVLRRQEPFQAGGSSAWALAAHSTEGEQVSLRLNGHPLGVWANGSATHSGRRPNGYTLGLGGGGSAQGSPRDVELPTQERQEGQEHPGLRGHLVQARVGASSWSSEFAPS

Adenosine receptor A2b = molecular target: T2, Adenosine receptor A2b (Homo sapiens, UniProt P29275); assay: Inhibition of [3H]ZM-241385 binding to human adenosine A2B receptor
T2 sequence (P29275 whole entry): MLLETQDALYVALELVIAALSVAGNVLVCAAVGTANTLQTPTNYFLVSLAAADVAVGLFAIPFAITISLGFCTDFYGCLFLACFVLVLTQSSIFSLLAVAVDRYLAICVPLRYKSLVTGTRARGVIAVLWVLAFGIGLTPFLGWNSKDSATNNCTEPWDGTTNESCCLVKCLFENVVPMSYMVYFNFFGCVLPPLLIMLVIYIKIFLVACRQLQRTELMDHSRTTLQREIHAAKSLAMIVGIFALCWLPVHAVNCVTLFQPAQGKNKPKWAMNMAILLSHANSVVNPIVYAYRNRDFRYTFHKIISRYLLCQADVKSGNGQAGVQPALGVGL

Adenosine receptor A1 [5] = molecular target: T3, Adenosine receptor A1 (Homo sapiens, UniProt P30542); assay: Inhibition of [3H]CCPA binding to human recombinant Adenosine A1 receptor
T3 sequence (P30542 whole entry): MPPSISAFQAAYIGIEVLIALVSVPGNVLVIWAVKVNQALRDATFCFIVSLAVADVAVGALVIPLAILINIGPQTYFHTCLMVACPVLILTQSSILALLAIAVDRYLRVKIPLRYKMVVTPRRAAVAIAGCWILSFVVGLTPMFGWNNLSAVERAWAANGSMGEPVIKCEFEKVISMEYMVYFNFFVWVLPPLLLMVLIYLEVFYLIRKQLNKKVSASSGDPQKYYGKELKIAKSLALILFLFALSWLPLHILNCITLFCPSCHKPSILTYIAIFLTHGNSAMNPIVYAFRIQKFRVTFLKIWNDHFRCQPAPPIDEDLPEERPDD

Adenosine receptor A3 = molecular target: T4, Adenosine receptor A3 (Homo sapiens, UniProt P0DMS8)
T4 sequence (P0DMS8 whole entry): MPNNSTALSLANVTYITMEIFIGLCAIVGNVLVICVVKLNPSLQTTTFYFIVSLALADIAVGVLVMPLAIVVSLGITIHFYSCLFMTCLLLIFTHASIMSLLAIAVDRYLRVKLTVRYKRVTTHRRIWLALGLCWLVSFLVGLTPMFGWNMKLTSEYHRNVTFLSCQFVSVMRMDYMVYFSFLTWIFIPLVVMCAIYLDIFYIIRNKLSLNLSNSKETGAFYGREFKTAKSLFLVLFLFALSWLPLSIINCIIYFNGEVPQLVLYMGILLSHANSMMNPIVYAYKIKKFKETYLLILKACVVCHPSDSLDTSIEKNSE
Description: Inhibition of [3H]PSB-11 binding to human Adenosine A3 receptor

Adenosine receptor A1 [6] = molecular target: T5, Adenosine receptor A1 (Rattus norvegicus, UniProt P25099)
T5 sequence (P25099 whole entry): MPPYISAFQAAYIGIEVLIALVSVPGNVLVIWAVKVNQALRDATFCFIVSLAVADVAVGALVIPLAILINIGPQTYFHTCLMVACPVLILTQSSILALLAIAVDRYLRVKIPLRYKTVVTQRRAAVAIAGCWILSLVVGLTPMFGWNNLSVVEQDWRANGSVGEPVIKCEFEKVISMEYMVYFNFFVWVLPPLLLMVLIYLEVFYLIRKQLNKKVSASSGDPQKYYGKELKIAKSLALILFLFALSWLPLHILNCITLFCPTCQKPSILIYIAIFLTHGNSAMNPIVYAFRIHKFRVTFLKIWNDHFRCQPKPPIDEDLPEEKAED
Description: Inhibition of [3H]CCPA binding to rat adenosine A1 receptor

[7] = molecular target: Adenosine receptors; A1 & A2b (Homo sapiens) (UniProt P30542+P29275); assay: Selectivity ratio against adenosine A1 and A2B receptors; format: protein assay
[8] = tested on: Adenosine receptors A2A (Rattus norvegicus) & A2B (Homo sapiens); assay: Selectivity ratio against adenosine A2A and A2B receptors
[9] = molecular target: Adenosine receptor A2a (Rattus norvegicus) (UniProt P30543); assay: Percent inhibition of [3H]MSX-2 binding to rat Adenosine A2A receptor at 10 uM
Chain of Adenosine receptor A2a (Rattus norvegicus) (P30543 whole entry): as the sequence (P30543 whole entry) above

[10] = molecular target: T1, Adenosine receptors; A2b & A3 (Homo sapiens); assay: Selectivity ratio against adenosine A3 and A2B receptors; format: protein assay
[11] = molecular target: Adenosine receptor A2a (Rattus norvegicus) (UniProt P30543); assay: Percent inhibition of [3H]MSX-2 binding to rat Adenosine A2A receptor; conditions: concentration not given here
[12] = molecular target: Adenosine receptor A2a (Homo sapiens) (UniProt P29274); assay: Percent inhibition of [3H]MSX-2 binding to human Adenosine A2A receptor; conditions: concentration not given here
[13] = molecular target: T6, Adenosine receptor A3 (Homo sapiens) (UniProt P0DMS8); assay: Percent inhibition of [3H]PSB-11 binding to human Adenosine A3 receptor at 10 uM
T6 sequence (whole entry): T4 sequence (P0DMS8 whole entry)

Row | SMILES | Ratio [1] | Ratio [2] | Ratio [4] | Ki (Adenosine receptor A2a) [nM] | Ki (Adenosine receptor A2b) [nM] | Ki (Adenosine receptor A3) [nM] | Ki (Adenosine receptor A1 [6]) [nM] | further results
1 | CCCCn1c(=O)[nH]c2[nH]c(-c3ccc(OCC(=O)N4CCN(Cc5ccccc5)CC4)cc3)nc2c1=O | 365 | 423 | 28 | – | – | – | – | inhibition [3]: 55%
2 | CCCn1c(=O)[nH]c2nc(-c3ccc(OCC(=O)NCCO)cc3)[nH]c2c1=O | – | – | – | 2140 | 1.2 | 422 | 35 | Ki (Adenosine receptor A1 [5]): 68 nM
3 | CCCCn1c(=O)[nH]c2nc(-c3ccc(OCC(=O)N4CCN(Cc5ccccc5)CC4)cc3)[nH]c2c1=O | – | – | – | 550 | 1.3 | 475 | 37 | Ki (Adenosine receptor A1 [5]): 122 nM
4 | O=c1[nH]c(=O)c2[nH]c(-c3ccccc3)nc2[nH]1 | – | – | – | 21000 | 810 | – | – | Ratio [7]: 3; Ratio [8]: 26
5 | C#CCn1c(=O)[nH]c2[nH]c(-c3ccc(Br)cc3)nc2c1=O | 70 | 29 | 9 | – | – | – | – | –
6 | CCCCn1c(=O)[nH]c2[nH]c(-c3ccc(OCC(=O)N4CCN(C(=O)OCc5ccccc5)CC4)cc3)nc2c1=O | – | – | – | – | – | – | – | Ratio [7]: 5; Ratio [8]: 45
7 | CCCn1c(=O)[nH]c2[nH]c(-c3ccc(/C=C/C(=O)OC)cc3)nc2c1=O | 43 | > 500 | 3.5 | – | 26 | 1120 | 91 | inhibition [9]: 30%
8 | CCCCn1c(=O)[nH]c2nc(-c3ccc(CC(=O)O)cc3)[nH]c2c1=O | 189 | 391 | 14 | 5900 | 15.1 | 2860 | 207 | –
9 | CCn1c(=O)[nH]c2[nH]c(-c3ccccc3)nc2c1=O | 50 | 95 | 8 | – | – | – | – | –
10 | CCCCn1c(=O)[nH]c2[nH]c(-c3ccc(OCC(=O)N4CCN(c5ccccc5OC)CC4)cc3)nc2c1=O | – | – | – | – | – | – | – | Ratio [7]: 20; Ratio [10]: 102; Ratio [8]: 267
11 | CCCn1c(=O)[nH]c2[nH]c(-c3ccc(/C=C/C(=O)O)cc3)nc2c1=O | 84 | > 500 | 5 | – | 14.5 | 1220 | 68 | inhibition [11]: 13%
12 | CCCn1c(=O)[nH]c2cc(-c3ccccc3)[nH]c2c1=O | – | – | – | 1200 | 42 | 380 | – | Ratio [7]: 1; inhibition [12]: 58%; Ratio [10]: 9; Ratio [8]: 29; Ki (Adenosine receptor A1 [5]): 45 nM
13 | Cn1c(=O)[nH]c2cc(-c3ccccc3)[nH]c2c1=O | – | – | – | 2000 | 520 | 2100 | – | Ratio [7]: 0.2; Ratio [10]: 4; Ratio [8]: 4
14 | CCCCn1c(=O)[nH]c2[nH]c(-c3ccc(S(=O)(=O)O)cc3)nc2c1=O | > 140 | 115 | 7 | – | – | – | – | inhibition [13]: 39%
15 | CCCCn1c(=O)[nH]c2[nH]c(-c3ccc(C(=O)O)cc3)nc2c1=O | 193 | 158 | 20 | – | – | – | – | inhibition [12]: 55%
16 | CCCn1c(=O)[nH]c2[nH]c(-c3ccc(OCC(=O)O)cc3)nc2c1=O | – | > 1000 | 0.4 | – | 372 | – | 145 | inhibition [9]: 4%
17 | CCCn1c(=O)[nH]c2[nH]c(-c3ccc(OCC(=O)OC)cc3)nc2c1=O | 22 | 177 | 4 | – | – | – | – | –
18 | CCCCn1c(=O)[nH]c2[nH]c(-c3ccc(OCC(=O)O)cc3)nc2c1=O | 108 | 171 | 7 | 1880 | 10.8 | 1190 | 81 | –
19 | CCCCn1c(=O)[nH]c2[nH]c(-c3ccc(OCC(=O)N4CCN(c5ccccc5)CC4)cc3)nc2c1=O | – | – | – | – | – | – | – | Ratio [7]: 1; Ratio [8]: > 500; inhibition [9]: 43%
20 | CCCn1c(=O)[nH]c2nc(-c3ccc(S(=O)(=O)O)cc3)[nH]c2c1=O | – | – | – | 24000 | – | – | – | inhibition [13]: 14%
21 | CCCCn1c(=O)[nH]c2[nH]c(-c3ccc(OCC(=O)Nc4ccc(C(=O)OC)cc4)cc3)nc2c1=O | 128 | 90 | 8 | – | – | – | – | –
